The values below come from patent US20100280061A1, “NOVEL ANALGESIC THAT BINDS FILAMIN A” (priority 2009, published 2010).

One assay has as its target T1, mu opiate receptor (MOR) (Rattus norvegicus, UniProt P33535).
T1 construct: from tissue; host or cells: striatal tissue (membrane preparation)
As to the kind of experiment: [35S]GTPγS binding assay using striatal membranes (MOR agonist activity). The arrangement: MOR agonist activity, [35S]GTPγS binding to Gαo, 0.1 μM / MOR agonist activity, [35S]GTPγS binding to Gαo, 1 μM / MOR agonist activity, [35S]GTPγS binding to Gαo, 1 μM + BFNA: reference not given here. The class given is biochemical. The settings on record: for MOR agonist activity, [35S]GTPγS binding to Gαo, 0.1 μM: 0.1 μM compound; for MOR agonist activity, [35S]GTPγS binding to Gαo, 0.1 μM / MOR agonist activity, [35S]GTPγS binding to Gαo, 1 μM: striatal membranes; for MOR agonist activity, [35S]GTPγS binding to Gαo, 1 μM + BFNA: 1 μM compound + 1 μM β-funaltrexamine; for MOR agonist activity, [35S]GTPγS binding to Gαo, 1 μM: 1 μM compound.

The target in assay [1] is Bn-VAKGL pentapeptide of filamin A (FLNA) (Homo sapiens, UniProt P21333). Nature of the assay: FITC-NLX-based FLNA screening assay (FLNA peptide binding assay). Conditions: 10 nM FITC-NLX; for Percent inhibition of FITC-NLX binding, 0.01 μM: 0.01 μM compound; for Percent inhibition of FITC-NLX binding, 0.1 μM: 0.1 μM compound; for Percent inhibition of FITC-NLX binding, 1 μM: 1 μM compound. Here is the method:
The final assay volume is 100 μl.
Compounds are tested in triplicate or quadruplicate.

The next assay concerns mouse. Nature of the assay: Mouse hot-water tail-flick test. Conditions: orally administered. The class given is in vivo. The protocol:
The mouse “tail flick” test was used to assay the relative antinociceptive activity of compositions containing a compound to be assayed.
This assay was substantially that disclosed by Xie et al., 2005 J. Neurosci 25:409-416.
The mouse hot-water tail-flick test was performed by placing the distal third of the tail in a water bath maintained at 52° C. The latency until tail withdrawal from the bath was determined and compared among the treatments. A 10 second cutoff was used to avoid tissue damage. Data are converted to percentage of antinociception by the following formula: (response latency−baseline latency)/(cutoff−baseline latency)×100 to generate dose-response curves. […] Relative potency was determined as a ratio of the A50 values.
For orientation: Hot-plate and tail-flick tests time the reaction to a heat stimulus.

Assay [2] has as its system MOR-Gs/olf and MOR-Go coupling. Nature of the assay: Relative Gs/Go switching in organotypic striatal slice cultures (MOR-G protein coupling). The class given is cell-based, rat. The settings on record: striatal slice culture. The protocol: The experiments described herein were carried out on organotypic striatal slices from male Sprague Dawley rats (200 to 250 g) purchased from Taconic (Germantown, N.Y.). Rats were housed two per cage and maintained on a regular 12-hour light/dark cycle in a climate-controlled room with food and water available ad libitum and sacrificed by rapid decapitation. All data are presented as mean±standard error of the mean. Treatment effects were evaluated by two-way ANOVA followed by Newman-Keul's test for multiple comparisons. Two-tailed Student's t test was used for post hoc pairwise comparisons. The threshold for significance was p<0.05.
Striatal slices ([…]) were prepared using a Mcllwain tissue chopper (Mickle Laboratory Engineering Co., Surrey, UK). Slices were carefully transferred to sterile, porous culture inserts (0.4 μm, Millicell-CM) using the rear end of a glass Pasteur pipette. Each culture insert unit contained 2 slices and was placed into one well of the 12-well culture tray. […] The pH value was adjusted to 7.2 with HEPES buffer.
Cultures were first incubated for 2 days to minimize the impact of injury from slice preparation. Incubator settings throughout the experiment were 36° C. with 5% CO2.
Slices were returned to culture medium with normal serum after each drug exposure. Tissues were harvested 16 hours after the last drug exposure by centrifugation.
For determination of MOR-G protein coupling, slices were homogenized to generate synaptic membranes. […] Following centrifugation, striatal membrane lysates were immunoprecipitated with immobilized anti-Gαs/olf or -Gαo conjugated with immobilized protein G-agarose beads. The level of MOR in anti-Gαs/olf or -Gαo immunoprecipitates was determined by Western blotting using specific anti-MOR antibodies.

A further assay deals with filamin A (Homo sapiens, UniProt P21333). Conditions: read-out: affinity of binding to filamin A; cited from earlier work.
[3] abbreviates: 32 mg/kg, at about 20-30 minutes.

T1 sequence (P33535 whole entry): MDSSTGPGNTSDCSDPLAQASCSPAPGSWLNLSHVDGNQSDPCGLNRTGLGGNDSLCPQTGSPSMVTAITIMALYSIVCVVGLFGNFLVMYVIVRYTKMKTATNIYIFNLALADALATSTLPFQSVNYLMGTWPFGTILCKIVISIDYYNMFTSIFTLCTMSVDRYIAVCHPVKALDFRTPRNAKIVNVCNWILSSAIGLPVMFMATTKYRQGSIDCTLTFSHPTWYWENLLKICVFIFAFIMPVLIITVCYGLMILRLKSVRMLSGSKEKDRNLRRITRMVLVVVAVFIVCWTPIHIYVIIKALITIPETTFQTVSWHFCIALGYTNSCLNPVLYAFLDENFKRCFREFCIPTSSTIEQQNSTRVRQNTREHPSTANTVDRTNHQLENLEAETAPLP
Chain of filamin A (P21333 whole entry): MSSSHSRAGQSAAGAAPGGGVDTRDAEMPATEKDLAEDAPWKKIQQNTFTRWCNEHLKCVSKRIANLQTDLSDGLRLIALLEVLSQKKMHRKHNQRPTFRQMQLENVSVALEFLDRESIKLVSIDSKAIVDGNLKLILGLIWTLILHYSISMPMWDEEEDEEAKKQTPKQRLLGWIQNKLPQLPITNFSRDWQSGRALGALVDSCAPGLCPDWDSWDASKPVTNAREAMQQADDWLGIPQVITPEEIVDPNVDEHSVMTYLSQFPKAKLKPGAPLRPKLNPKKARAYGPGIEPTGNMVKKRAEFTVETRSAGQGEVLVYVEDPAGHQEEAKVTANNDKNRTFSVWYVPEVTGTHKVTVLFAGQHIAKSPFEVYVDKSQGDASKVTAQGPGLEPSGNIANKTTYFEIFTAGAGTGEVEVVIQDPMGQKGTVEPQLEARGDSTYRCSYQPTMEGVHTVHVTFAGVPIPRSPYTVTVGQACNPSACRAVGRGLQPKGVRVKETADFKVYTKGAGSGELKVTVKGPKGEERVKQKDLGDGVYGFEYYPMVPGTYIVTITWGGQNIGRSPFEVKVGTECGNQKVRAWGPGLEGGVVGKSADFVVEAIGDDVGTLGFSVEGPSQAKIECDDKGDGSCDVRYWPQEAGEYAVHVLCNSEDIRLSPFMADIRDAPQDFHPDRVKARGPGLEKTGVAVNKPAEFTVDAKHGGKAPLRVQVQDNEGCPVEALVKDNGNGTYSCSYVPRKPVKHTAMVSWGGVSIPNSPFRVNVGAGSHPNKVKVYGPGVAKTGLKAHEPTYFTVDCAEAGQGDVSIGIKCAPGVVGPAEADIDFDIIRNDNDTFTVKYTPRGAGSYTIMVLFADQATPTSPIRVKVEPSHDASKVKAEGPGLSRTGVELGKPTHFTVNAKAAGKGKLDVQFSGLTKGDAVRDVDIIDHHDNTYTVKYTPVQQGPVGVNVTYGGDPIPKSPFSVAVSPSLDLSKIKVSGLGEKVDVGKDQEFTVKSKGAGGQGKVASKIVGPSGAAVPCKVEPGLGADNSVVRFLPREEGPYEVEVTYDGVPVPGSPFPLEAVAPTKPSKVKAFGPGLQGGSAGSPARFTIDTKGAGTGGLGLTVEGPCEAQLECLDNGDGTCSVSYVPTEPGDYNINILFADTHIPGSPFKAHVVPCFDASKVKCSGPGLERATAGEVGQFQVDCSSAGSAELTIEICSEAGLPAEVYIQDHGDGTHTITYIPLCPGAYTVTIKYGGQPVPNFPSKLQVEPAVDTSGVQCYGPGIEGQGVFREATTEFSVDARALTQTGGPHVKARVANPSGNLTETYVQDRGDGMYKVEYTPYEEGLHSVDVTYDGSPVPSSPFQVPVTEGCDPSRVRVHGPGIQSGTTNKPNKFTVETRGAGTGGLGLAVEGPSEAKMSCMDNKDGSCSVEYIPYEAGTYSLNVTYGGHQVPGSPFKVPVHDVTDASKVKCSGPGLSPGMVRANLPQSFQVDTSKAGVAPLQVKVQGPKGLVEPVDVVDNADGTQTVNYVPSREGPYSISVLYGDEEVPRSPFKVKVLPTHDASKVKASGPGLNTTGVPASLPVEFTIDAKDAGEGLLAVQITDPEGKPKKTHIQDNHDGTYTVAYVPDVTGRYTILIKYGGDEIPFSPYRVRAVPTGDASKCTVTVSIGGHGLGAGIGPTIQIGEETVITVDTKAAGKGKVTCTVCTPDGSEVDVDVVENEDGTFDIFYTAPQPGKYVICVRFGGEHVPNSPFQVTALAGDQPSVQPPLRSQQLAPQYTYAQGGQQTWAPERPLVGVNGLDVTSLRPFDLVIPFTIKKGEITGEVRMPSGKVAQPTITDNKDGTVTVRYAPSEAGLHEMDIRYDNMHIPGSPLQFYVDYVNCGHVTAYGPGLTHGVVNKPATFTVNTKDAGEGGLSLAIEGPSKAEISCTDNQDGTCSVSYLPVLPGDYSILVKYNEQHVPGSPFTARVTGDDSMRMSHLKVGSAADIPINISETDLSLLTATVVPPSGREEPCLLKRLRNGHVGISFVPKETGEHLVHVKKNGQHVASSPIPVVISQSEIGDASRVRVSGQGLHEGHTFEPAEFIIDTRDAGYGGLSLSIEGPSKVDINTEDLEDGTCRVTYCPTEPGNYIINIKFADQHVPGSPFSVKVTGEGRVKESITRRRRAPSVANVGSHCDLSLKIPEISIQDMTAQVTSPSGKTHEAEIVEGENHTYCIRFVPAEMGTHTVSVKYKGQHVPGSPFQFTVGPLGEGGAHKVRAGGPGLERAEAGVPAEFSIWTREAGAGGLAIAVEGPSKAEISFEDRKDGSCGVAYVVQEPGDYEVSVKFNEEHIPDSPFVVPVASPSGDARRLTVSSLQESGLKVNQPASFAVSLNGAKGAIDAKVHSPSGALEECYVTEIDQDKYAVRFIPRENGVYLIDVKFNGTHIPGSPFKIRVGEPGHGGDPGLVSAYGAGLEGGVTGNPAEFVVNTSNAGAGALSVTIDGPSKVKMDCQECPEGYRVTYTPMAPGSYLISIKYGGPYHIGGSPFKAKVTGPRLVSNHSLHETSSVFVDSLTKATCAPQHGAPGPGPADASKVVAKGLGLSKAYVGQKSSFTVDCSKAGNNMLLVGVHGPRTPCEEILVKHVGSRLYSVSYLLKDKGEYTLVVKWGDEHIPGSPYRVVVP

As to `COc1cccc(OC)c1CC(=O)CC1c2c(cc3c(c2OC)OCO3)CC[N+]1(C)C.[I-]` (stereo not shown) [B0036], at mu opiate receptor (MOR), the “MOR agonist activity, [35S]GTPγS binding to Gαo, 0.1 μM” value (shortened to “MOR agonist activity … 0.1 μM”) was determined as 61.4%; the “MOR agonist activity, [35S]GTPγS binding to Gαo, 1 μM + BFNA” value (shortened to “MOR agonist activity … 1 μM + BFNA”) was 65.1%; the “MOR agonist activity, [35S]GTPγS binding to Gαo, 1 μM” value is 120.6%. In assay [1], the “Percent inhibition of FITC-NLX binding, 0.01 μM” value is 46.6%; the “Percent inhibition of FITC-NLX binding, 0.1 μM” value is recorded as 52.8%; the “Percent inhibition of FITC-NLX binding, 1 μM” value was found to be 62.1%. In the assay with mouse (setting [3]), the “mean maximum antinoniception amount” value is recorded as “about 20%”.
In the case of `COCOc1ccc(CCC(=O)CC2c3c(cc4c(c3OC)OCO4)CC[N+]2(C)C)cc1.[I-]` (stereo not shown) [B0040], on mu opiate receptor (MOR), the “MOR agonist activity … 0.1 μM” value is listed as 146.0%; the “MOR agonist activity … 1 μM + BFNA” value came out at 55.3%; the “MOR agonist activity, [35S]GTPγS binding to Gαo, 1 μM” value was 243.3%. Further, in assay [1], the “Percent inhibition of FITC-NLX binding, 0.01 μM” value amounted to 40.0%; the “Percent inhibition of FITC-NLX binding, 0.1 μM” value is 53.1%; the “Percent inhibition of FITC-NLX binding, 1 μM” value is 57.1%. For the same molecule, in the assay on mouse (setting [3]), the “mean maximum antinoniception amount” value was “about 25%”. For the same molecule, in assay [2] (10 μM), the “Go (MOR in anti-Gαo immunoprecipitates), average” value was found to be 1419.8; the “Gs/Go-Coupled Ratio, average” value came to 0.598; the “Gs/olf (MOR in anti-Gαs/olf immunoprecipitates), average” value is 839.0. Also, in assay [2] (100 μM), the “Go (MOR in anti-Gαo immunoprecipitates), average” value worked out at 1472.6; the “Gs/Go-Coupled Ratio, average” value is given as 0.332; the “Gs/olf (MOR in anti-Gαs/olf immunoprecipitates), average” value is recorded as 867.2.
Turning to `C=CCN1CC[C@]23c4c5ccc(O)c4O[C@H]2C(=O)CC[C@@]3(O)[C@H]1C5` [NLX, naloxone], the Kd on filamin A is about 4 pM.
With `O=C1CC[C@@]2(O)[C@H]3Cc4ccc(O)c5c4[C@@]2(CCN3CC2CC2)[C@H]1O5` [NTX, naltrexone], the Kd at filamin A was about 4 pM.
For the molecule `COc1ccccc1CC(=O)CC1c2c(cc3c(c2OC)OCO3)CC[N+]1(C)C` (stereo not shown) [compound 5009], on mu opiate receptor (MOR), the “MOR agonist activity … 0.1 μM” value was found to be 128.5%; the “MOR agonist activity … 1 μM + BFNA” value came to 87.5%; the “MOR agonist activity, [35S]GTPγS binding to Gαo, 1 μM” value is given as 270.4%. For the same molecule, in the assay with mouse (setting [3]), the “mean maximum antinoniception amount” value is recorded as “about 30%”.
For `CN1CC[C@]23c4c5ccc(O)c4O[C@H]2[C@@H](O)C=C[C@H]3[C@H]1C5` [morphine, reference compound], the “mean maximum antinoniception amount” value in the assay on mouse (56 mg/kg, at about 20 minutes) is listed as “about 43%”. Further, the antinoniceptive effect entry with mouse (same dose (32 mg/kg), at thirty minutes) was “about 30%”.
